Among the data in US11479556B1, “Bifunctional compounds for degrading BTK via ubiquitin proteosome pathway” (NURIX THERAPEUTICS, INC., priority 2018, dated 2022) are DC50 values, retold here.

For this test, the target named is T1, BTK (Homo sapiens, UniProt Q06187).
T1 construct: endogenous in cells; host or cells: TMD8 cells
T1 sequence (Q06187 whole entry): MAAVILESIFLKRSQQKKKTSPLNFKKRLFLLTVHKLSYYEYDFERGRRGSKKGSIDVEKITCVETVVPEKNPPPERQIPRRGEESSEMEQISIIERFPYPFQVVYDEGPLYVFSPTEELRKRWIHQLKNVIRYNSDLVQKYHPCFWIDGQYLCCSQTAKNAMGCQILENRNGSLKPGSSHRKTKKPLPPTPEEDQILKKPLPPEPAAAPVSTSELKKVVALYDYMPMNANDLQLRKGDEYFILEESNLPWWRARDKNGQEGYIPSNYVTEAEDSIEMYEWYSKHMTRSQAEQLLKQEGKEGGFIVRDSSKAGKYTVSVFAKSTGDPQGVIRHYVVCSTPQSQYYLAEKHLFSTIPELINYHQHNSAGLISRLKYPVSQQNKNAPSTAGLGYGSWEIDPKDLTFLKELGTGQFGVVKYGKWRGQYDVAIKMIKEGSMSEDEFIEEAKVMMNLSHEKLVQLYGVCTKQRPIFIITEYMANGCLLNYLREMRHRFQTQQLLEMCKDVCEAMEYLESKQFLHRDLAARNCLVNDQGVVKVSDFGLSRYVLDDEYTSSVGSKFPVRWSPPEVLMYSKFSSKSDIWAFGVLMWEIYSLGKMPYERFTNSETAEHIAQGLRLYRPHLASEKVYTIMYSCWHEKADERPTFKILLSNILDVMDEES
Put plainly: Cellular BTK HTRF assay (BTK degradation) in TMD8 cells. The test is classed as cell-based. The settings on record: four hours incubation, Total-BTK HTRF relative to DMSO-treated cells. The gist of the method: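 TMD8 cells were treated with compounds (final DMSO <0.200) for four hours at 37° C, 5% CO2, then lysed for 30 minutes. Total BTK was measured by two-antibody HTRF, taking the 665/620 nm ratio with background subtracted and expressed relative to DMSO-treated cells. DC50 came from four-parameter nonlinear regression.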
On to `CN1CCN([C@@H]2CCCN(c3cnc(C(N)=O)c(Nc4ccc(C5CCN(CC6CCN(c7cnn(C8CCC(=O)NC8=O)c(=O)c7)CC6)CC5)cc4)n3)C2)C1=O` (stereo partly shown) [Compound 120], for which the DC50 was less than 5 nM.

Turning to `CN1CCN([C@@H]2CCCN(c3cnc(C(N)=O)c(Nc4ccc(C5CCN(CC6CCN(c7ccc(-c8nn(C9CCC(=O)NC9=O)c(=O)n8C)cc7)CC6)CC5)cc4)n3)C2)C1=O` (stereo partly shown) [Compound 121], the half-maximal degradation concentration (DC50) is less than 5 nM.

The compound `NC(=O)c1ncc(N2CCC[C@H](N3CCCC3=O)C2)nc1Nc1ccc(C2CCN(CC3CCN(c4ccc5c(c4)CCN(C4CCC(=O)NC4=O)C5=O)CC3)CC2)cc1` (stereo partly shown) [Compound 122] registered a DC50 of less than 5 nM.

As to `NC(=O)c1ncc(N2CCCCC2)nc1Nc1ccc(N2CCC3(CC2)CCN(c2ccc4c(c2)C(=O)N(C2CCC(=O)NC2=O)C4=O)CC3)cc1` (stereo not shown) [Compound 124], the DC50 is more than 15 nM.

Compound `NC(=O)c1ncc(-n2cccn2)nc1Nc1ccc(C2CCN(C[C@H]3CCN(c4ccc5c(c4)C(=O)N(C4CCC(=O)NC4=O)C5=O)C3)CC2)cc1` (stereo partly shown) [Compound 125] yielded a DC50 of less than 5 nM.

With `NC(=O)c1ncc(N2CCCC3(COC3)C2)nc1Nc1ccc(C2CCN(C[C@H]3CCN(c4ccc5c(c4)C(=O)N(C4CCC(=O)NC4=O)C5=O)C3)CC2)cc1` (stereo partly shown) [Compound 126], the DC50 was less than 5 nM.

`NC(=O)c1ncc(-n2ccc(C(F)(F)F)n2)nc1Nc1ccc(C2CCN(CC3CCN(c4ccc5c(=O)n(C6CCC(=O)NC6=O)ccc5c4)CC3)CC2)cc1` (stereo not shown) [Compound 127] yielded a 50% degradation concentration (DC50) of more than 15 nM.

In the case of `NC(=O)c1ncc(-n2ccc(C(F)(F)F)n2)nc1Nc1ccc(C2CCN(C[C@H]3CCN(c4ccc5c(c4)C(=O)N(C4CCC(=O)NC4=O)C5=O)C3)CC2)cc1` (stereo partly shown) [Compound 128], the DC50 was more than 15 nM.

`CN1CCN([C@H]2CCCN(c3cnc(C(N)=O)c(Nc4ccc(C5CCN(CC6CCN(c7ccc(NC8CCC(=O)NC8=O)cn7)CC6)CC5)cc4)n3)C2)C1=O` (stereo partly shown) [Compound 129] displayed a DC50 of less than 5 nM.

`CN1CCN([C@H]2CCCN(c3cnc(C(N)=O)c(Nc4ccc(C5CCN(CC6CCN(c7ccc(C(=O)NC8CCC(=O)NC8=O)cc7)CC6)CC5)cc4)n3)C2)C1=O` (stereo partly shown) [Compound 130] registered a DC50 of less than 5 nM.

`Cn1cc(Nc2nc(N3CCC[C@H](N4CC5(CN(CC6CCN(c7ccc(NC8CCC(=O)NC8=O)nc7)CC6)C5)OC4=O)C3)cnc2C(N)=O)cn1` (stereo partly shown) [Compound 132]: the DC50 was less than 5 nM.

The compound `NC(=O)c1ncc(N2CCCCC2)nc1Nc1ccc(C2CCN(CC3CCN(c4ccc5c(=O)n(C6CCC(=O)NC6=O)ccc5c4)CC3)CC2)cc1` (stereo not shown) [Compound 133] registered a half-maximal degradation concentration (DC50) of less than 5 nM.

As for `CN1CCN([C@@H]2CCCN(c3cnc(C(N)=O)c(Nc4ccc(C5CCN(C[C@H]6CCN(c7ccc8c(=O)n(C9CCC(=O)NC9=O)ccc8c7)C6)CC5)cc4)n3)C2)C1=O` (stereo partly shown) [Compound 134], the 50% degradation concentration (DC50) was less than 5 nM.

For the compound `Cn1c(-c2ccc(N3CC(CN4CCC(c5ccc(Nc6nc(N7CCC[C@H](N8CCCC8=O)C7)cnc6C(N)=O)cc5)CC4)C3)cc2)nn(C2CCC(=O)NC2=O)c1=O` (stereo partly shown) [Compound 135], the DC50 was less than 5 nM.

As to `CN1CCN([C@H]2CCCN(c3cnc(C(N)=O)c(Nc4ccc(C5CCN(CC6CN(c7ccc(-c8nn(C9CCC(=O)NC9=O)c(=O)n8C)cc7)C6)CC5)cc4)n3)C2)C1=O` (stereo partly shown) [Compound 136], the DC50 is less than 5 nM.

The compound `Cn1cc(Nc2nc(N3CCC[C@@H](N4CCC5(CN(CC6CCN(c7ccc8c(c7)C(=O)N(C7CCC(=O)NC7=O)C8=O)CC6)C5)C4=O)C3)cnc2C(N)=O)cn1` (stereo partly shown) [Compound 137] registered a half-maximal degradation concentration (DC50) of less than 5 nM.

`CN1CCN([C@@H]2CCCN(c3cnc(C(N)=O)c(Nc4ccc(C5CCN(CC6CN(c7ccc8c(=O)n(C9CCC(=O)NC9=O)ccc8c7)C6)CC5)cc4)n3)C2)C1=O` (stereo partly shown) [Compound 138]: the DC50 is less than 5 nM.

`NC(=O)c1ncc(N2CCC[C@H](N3CCCC3=O)C2)nc1Nc1ccc(C2CN(CC3CCN(c4ccc5c(=O)n(C6CCC(=O)NC6=O)ccc5c4)CC3)C2)cc1` (stereo partly shown) [Compound 139] showed a DC50 of less than 5 nM.

`NC(=O)c1ncc(N2CCC[C@H](N3CCCC3=O)C2)nc1Nc1ccc(C2CN(C[C@@H]3CCN(c4ccc5c(c4)C(=O)N(C4CCC(=O)NC4=O)C5=O)C3)C2)cc1` (stereo partly shown) [Compound 140]: the DC50 was less than 5 nM.

Consider `Cn1c(N2CCC(CN3CC(c4ccc(Nc5nc(N6CCC[C@H](N7CCCC7=O)C6)cnc5C(N)=O)cc4)C3)CC2)nn(C2CCC(=O)NC2=O)c1=O` (stereo partly shown) [Compound 141], for which the DC50 is less than 5 nM.

Take `CC1CCN([C@H]2CCCN(c3cnc(C(N)=O)c(Nc4ccc(C5CCN(C[C@@H]6CCN(c7ccc(-c8nn(C9CCC(=O)NC9=O)c(=O)n8C)cc7)C6)CC5)cc4)n3)C2)C1=O` (stereo partly shown) [Compound 142]: the DC50 is less than 5 nM.

Compound `Cn1c(-c2ccc(N3CCC(CN4CCC(c5ccc(Nc6nc(N7CCC[C@H](N8CCCC8=O)C7)cnc6C(N)=O)cc5)CC4)CC3)cc2)nn(C2CCC(=O)NC2=O)c1=O` (stereo partly shown) [Compound 143] showed a DC50 of less than 5 nM.

As for `NC(=O)c1ncc(N2CCC[C@H](N3CCCC3=O)C2)nc1Nc1ccc(C2CCN(CC3CCN(c4ccc5c(=O)n(C6CCC(=O)NC6=O)ccc5c4)CC3)CC2)cc1` (stereo partly shown) [Compound 144], the 50% degradation concentration (DC50) is less than 5 nM.

As to `Cn1cc(Nc2nc(N3CCC[C@@H](N4CCC5(CN(CC6CCN(c7ccc8c(=O)n(C9CCC(=O)NC9=O)ccc8c7)CC6)C5)C4=O)C3)cnc2C(N)=O)cn1` (stereo partly shown) [Compound 145], the DC50 is less than 5 nM.

`NC(=O)c1ncc(N2CCCC(N3CCCC3=O)C2)nc1Nc1ccc(C2CN(C[C@@H]3CCN(c4ccc5c(c4)C(=O)N(C4CCC(=O)NC4=O)C5=O)C3)C2)cc1` (stereo partly shown) [Compound 146]: the DC50 is less than 5 nM.

In turn, `Cn1cc(Nc2nc(N3CCC[C@@H](N4CC5(CN(CC6CCN(c7ccc8c(=O)n(C9CCC(=O)NC9=O)ccc8c7)CC6)C5)OC4=O)C3)cnc2C(N)=O)cn1` (stereo partly shown) [Compound 147] showed a DC50 of less than 5 nM.

Compound `NC(=O)c1ncc(-c2nccs2)nc1Nc1ccc(C2CCN(C[C@@H]3CCN(c4ccc5c(c4)C(=O)N(C4CCC(=O)NC4=O)C5=O)C3)CC2)cc1` (stereo partly shown) [Compound 148] had a 50% degradation concentration (DC50) of less than 5 nM.

For `NC(=O)c1ncc(N2CCCCC2)nc1Nc1ccc(C2CCN(C[C@@H]3CCN(c4ccc5c(c4)C(=O)N(C4CCC(=O)NC4=O)C5=O)C3)CC2)cc1` (stereo partly shown) [Compound 149], the DC50 was less than 5 nM.

In turn, `NC(=O)c1ncc(-c2nccs2)nc1Nc1ccc(N2CCC3(CC2)CCN(c2ccc4c(c2)C(=O)N(C2CCC(=O)NC2=O)C4=O)CC3)cc1` (stereo not shown) [Compound 151] showed a half-maximal degradation concentration (DC50) of more than 15 nM.

As for `CN1CCN(C2CCCN(c3cnc(C(N)=O)c(Nc4ccc(C5CCN(CC6CCN(c7ccc8c(c7)CN(C7CCC(=O)NC7=O)C8=O)C6)CC5)cc4)n3)C2)C1=O` (stereo not shown) [Compound 152], the half-maximal degradation concentration (DC50) is less than 5 nM.

The compound `NC(=O)c1ncc(N2CCC[C@@H](N3CCOC3=O)C2)nc1Nc1ccc(C2CCN(CC3CCN(c4ccc5c(=O)n(C6CCC(=O)NC6=O)ccc5c4)CC3)CC2)cc1` (stereo partly shown) [Compound 153] displayed a DC50 of less than 5 nM.

As to `CN1CCN([C@@H]2CCCN(c3cnc(C(N)=O)c(Nc4ccc(C5CCN(C[C@H]6CC[C@H](Nc7cccc8c7C(=O)N(C7CCC(=O)NC7=O)C8=O)CC6)CC5)cc4)n3)C2)C1=O` (stereo partly shown) [Compound 154], the DC50 was less than 5 nM.

Consider `CN1CCN([C@@H]2CCCN(c3cnc(C(N)=O)c(Nc4ccc(C5CCN(C(=O)COc6cccc7c6C(=O)N(C6CCC(=O)NC6=O)C7=O)CC5)cc4)n3)C2)C1=O` (stereo partly shown) [Compound 158], for which the 50% degradation concentration (DC50) lay within 5 to 15 nM.

The compound `NC(=O)c1ncc(N2CCC(C(=O)O)CC2)nc1Nc1ccc(C2CCN(C[C@H]3CCN(c4ccc5c(c4)C(=O)N(C4CCC(=O)NC4=O)C5=O)C3)CC2)cc1` (stereo partly shown) [Compound 159] returned a DC50 of 5 to 15 nM.
